According to patent US12521403B2, “Compositions for the treatment of chronic vulval and perineal pain and symptoms and conditions associated therewith” (TA Pharma Pty Limited, priority 2016, dated 2026):
Where a name gives a salt, the structure may show the parent alone. Read-outs that look alike come from different tables or passages of the source.

Assays:
[1] = cited from earlier work
[2] = Dissolution of estriol in solvents for the organic phase of the organogel; assay type: physicochemical; conditions: propylene glycol alone
Procedure: The ratio of propylene glycol to LIP was 4:10. For the aqueous phase, amitriptyline HCL was dissolved in water, then PLURONIC® F-127 was added to give a 20% PLURONIC® solution. The two phases were mixed using a syringe to syringe transfer method which produce a relatively high shear mixing. The ratio of organic to aqueous phases was 1:2. This produced a stable organogel with final concentrations of 300 mcg/g estriol and 0.5% w/w amitriptyline. Stability may be increased by the addition of potassium sorbate.
To increase the dissolution of the estriol in the organic phase, and thereby improve bioavailability, a combination of solubiliser (diethylene glycol monoethyl ether) and propylene glycol was employed. […] This was then blended with the LIP to produce the organic phase.

SMILES | solubility in water ([1]; water) | dissolution in propylene glycol [2] | solubility in water ([1]; at pH 1.2) | solubility in water ([1]; at pH 6.8)
C[C@]12CC[C@@H]3c4ccc(O)cc4CC[C@H]3[C@@H]1C[C@@H](O)[C@@H]2O [Estriol] | 27 mg per litre | did not produce a clear solution |  | 
CN(C)CCC=C1c2ccccc2CCc2ccccc21 [Amitriptyline HCL] |  |  | 1000 mg/mL | 0.9 mg/mL
